Results reported in patent US10709709B2, “Substituted carbonucleoside derivatives useful as anticancer agents” (Pfizer Inc., priority 2016, dated 2020).
pIC50: −log10 of the molar value.

What was measured:
[1] = test system: A549 lung adenocarcinoma cells; assay: A549 proliferation assay (Cell Titer Glo); type: cell-based; conditions: 7 days with compound, cell viability by Cell Titer Glo (ATP)
Experimental: A549 lung adenocarcinoma cells (American Type Culture Collection) were maintained in DMEM growth media (Life Technologies) supplemented with 10% v/v heat inactivated fetal bovine serum (Sigma) and cultured at 37° C., 5% CO2. Exponentially growing A549 cells were plated in 96-well black tissue culture treated plates (Corning) at a density of […] in a volume of 100 μl culture media and allowed to adhere overnight at 37° C., 5% CO2. The following day, compound plates were prepared by making nine-point 3.3-fold dilutions in DMSO with a top concentration of 10 mM. Compounds were further diluted in culture media and 11 μl was added to the cells (final top assay concentration was 10 μM and DMSO was 0.2%). Cells were incubated with compound at 37° C., 5% CO2 for 7 days with media and compound replacement on day 4. Cell viability was assayed on Day 7 by adding 100 μl Cell Titer Glo (Promega) reagent to the plate to measure the amount of ATP present in the cells. Luminescence was read using the Envision 2104 Multilabel Reader (Perkin Elmer). The 50% inhibitory concentration (IC50) was determined using a 4-parameter fit model normalized to the DMSO control in dose response.

[2] = molecular target: PRMT5/MEP50 protein complex (Homo sapiens (Human), UniProt O14744); assay: PRMT5 biochemical assay (3H-SAM methylation of H4(1-21) peptide, filter plate scintillation); conditions: 10 nM PRMT5/MEP50 complex, 200 nM H4(1-21) peptide, 1 uM SAM, 25 minute incubation at room temperature
Summary of the method: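 Scintillation read-out: after 25 min at room temperature and a TCA stop, tritiated H4(1-21) product (peptide 200 nM) is caught on a filter plate. Reaction holds 10 nM PRMT5/MEP50 and 1 uM 3H-labelled plus cold SAM in 50 mM Tris pH 8.5 with MgCl2, EDTA and TCEP. IC50 values come from a 4-parameter dose-response fit.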

Sequence of PRMT5/MEP50 protein complex (O14744 other isoform, or with tags, fused parts or gaps): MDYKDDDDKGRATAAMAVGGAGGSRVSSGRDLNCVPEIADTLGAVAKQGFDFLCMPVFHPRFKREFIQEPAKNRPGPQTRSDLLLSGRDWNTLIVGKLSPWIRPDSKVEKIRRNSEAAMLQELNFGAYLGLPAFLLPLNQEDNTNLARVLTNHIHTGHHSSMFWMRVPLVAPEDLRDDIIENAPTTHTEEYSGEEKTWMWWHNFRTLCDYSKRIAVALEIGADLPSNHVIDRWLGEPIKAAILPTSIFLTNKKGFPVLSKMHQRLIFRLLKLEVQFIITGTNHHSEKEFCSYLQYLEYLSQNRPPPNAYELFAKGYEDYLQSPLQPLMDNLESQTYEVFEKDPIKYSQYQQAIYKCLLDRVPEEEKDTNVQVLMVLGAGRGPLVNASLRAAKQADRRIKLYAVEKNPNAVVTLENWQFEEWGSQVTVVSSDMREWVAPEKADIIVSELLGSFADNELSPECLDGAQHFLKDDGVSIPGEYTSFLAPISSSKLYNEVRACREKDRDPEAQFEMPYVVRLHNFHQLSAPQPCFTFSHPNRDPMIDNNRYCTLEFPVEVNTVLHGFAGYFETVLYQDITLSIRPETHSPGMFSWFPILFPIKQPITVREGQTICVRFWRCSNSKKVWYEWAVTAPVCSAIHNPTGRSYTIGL
Sequence of PRMT5/MEP50 protein complex (Q9BQA1 whole entry partner): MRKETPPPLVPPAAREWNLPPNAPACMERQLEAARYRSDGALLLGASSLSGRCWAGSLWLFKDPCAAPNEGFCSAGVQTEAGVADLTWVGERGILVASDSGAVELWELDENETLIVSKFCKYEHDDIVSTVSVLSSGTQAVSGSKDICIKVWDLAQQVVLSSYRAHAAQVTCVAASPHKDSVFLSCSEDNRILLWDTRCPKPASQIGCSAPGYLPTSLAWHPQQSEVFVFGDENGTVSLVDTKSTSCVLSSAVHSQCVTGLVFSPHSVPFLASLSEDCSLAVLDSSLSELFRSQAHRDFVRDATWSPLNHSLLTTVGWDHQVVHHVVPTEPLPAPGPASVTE

Cc1ncnc2c1ccn2[C@@H]1C[C@H](Oc2cc(-c3cnoc3)cc3c2CNCC3)[C@@H](O)[C@H]1O [Example 197, (1S,2S,3S,5R)-3-((6-(isoxazol-4-yl)-1,2,3,4-tetrahydroisoquinolin-8-yl)oxy)-5-(4-methyl-7H-pyrrolo[2,3-d]pyrimidin-7-yl)cyclopentane-1,2-diol]
pIC50 ([1]; Homo sapiens, A549, 168 h): 5.46 | pIC50 [2]: 9.00

Cc1cc2c(c(O[C@H]3C[C@@H](n4cc(F)c5c(N)ncnc54)[C@H](O)[C@@H]3O)c1)CNCC2 [Example 105, (1S,2S,3R,5S)-3-(4-amino-5-fluoro-7H-pyrrolo[2,3-d]pyrimidin-7-yl)-5-((6-methyl-1,2,3,4-tetrahydroisoquinolin-8-yl)oxy)cyclopentane-1,2-diol]
pIC50 ([1]; Homo sapiens, A549, 168 h): 6.42 | pIC50 [2]: 9.00

Cc1ncnc2c1ccn2[C@@H]1C[C@H]([C@H](O)c2ccc(Cl)c(F)c2)[C@@H](O)[C@H]1O [Example 160, (1S,2R,3R,5R)-3-((S)-(4-chloro-3-fluorophenyl)(hydroxy)methyl)-5-(4-methyl-7H-pyrrolo[2,3-d]pyrimidin-7-yl)cyclopentane-1,2-diol]
pIC50 ([1]; Homo sapiens, A549, 168 h): 6.39 | pIC50 [2]: 8.05

COc1cc(O[C@H]2C[C@@H](n3ccc4c(C)ncnc43)[C@H](O)[C@@H]2O)c2c(c1F)CCNC2 [Example 198, (1S,2S,3S,5R)-3-((5-fluoro-6-methoxy-1,2,3,4-tetrahydroisoquinolin-8-yl)oxy)-5-(4-methyl-7H-pyrrolo[2,3-d]pyrimidin-7-yl)cyclopentane-1,2-diol]
pIC50 ([1]; Homo sapiens, A549, 168 h): 5.42 | pIC50 [2]: 9.00

COc1nc(O[C@H]2C[C@@H](n3ccc4c(C)ncnc43)[C@H](O)[C@@H]2O)c2c(c1F)CCNC2 [Example 191, (1S,2S,3S,5R)-3-((4-fluoro-3-methoxy-5,6,7,8-tetrahydro-2,7-naphthyridin-1-yl)oxy)-5-(4-methyl-7H-pyrrolo[2,3-d]pyrimidin-7-yl)cyclopentane-1,2-diol]
pIC50 ([1]; Homo sapiens, A549, 168 h): 5.15 | pIC50 [2]: 9.00

CC1CNCc2c(O[C@H]3C[C@@H](n4cc(F)c5c(N)ncnc54)[C@H](O)[C@@H]3O)cc(C(F)F)c(F)c21 (stereo partly drawn) [Example 216, (1S,2S,3R,5S)-3-(4-amino-5-fluoro-7H-pyrrolo[2,3-d]pyrimidin-7-yl)-5-((6-(difluoromethyl)-5-fluoro-4-methyl-1,2,3,4-tetrahydroisoquinolin-8-yl)oxy)cyclopentane-1,2-diol]
pIC50 [1]: 8.22 | pIC50 [2]: 9.00

Cc1ncnc2c1ccn2[C@@H]1C[C@H](Oc2cccc3c2C(N)CCC3)[C@@H](O)[C@H]1O (single isomer, unassigned) [Example 186]
pIC50 ([1]; Homo sapiens, A549, 168 h): 5.02 | pIC50 [2]: 7.92

Nc1ncnc2c1ccn2[C@@H]1C[C@H](Oc2ccc(F)c3c2CNCC3)[C@@H](O)[C@H]1O [Example 180, (1S,2S,3R,5S)-3-(4-amino-7H-pyrrolo[2,3-d]pyrimidin-7-yl)-5-((5-fluoro-1,2,3,4-tetrahydroisoquinolin-8-yl)oxy)cyclopentane-1,2-diol]
pIC50 ([1]; Homo sapiens, A549, 168 h): 6.80 | pIC50 [2]: 8.52

Cc1ncnc2c1ccn2[C@@H]1C[C@H](Oc2cncc3c2CNCC3)[C@@H](O)[C@H]1O [Example 95, (1S,2S,3R,5S)-3-(4-methyl-7H-pyrrolo[2,3-d]pyrimidin-7-yl)-5-((5,6,7,8-tetrahydro-2,6-naphthyridin-4-yl)oxy)cyclopentane-1,2-diol]
pIC50 ([1]; Homo sapiens, A549, 168 h): 5.09 | pIC50 [2]: 8.22

Nc1ncnc2c1c(F)cn2[C@@H]1C[C@H]([C@H](O)c2ccc(F)cc2)[C@@H](O)[C@H]1O [Example 25, (1R,2S,3R,5R)-3-(4-amino-5-fluoro-7H-pyrrolo[2,3-d]pyrimidin-7-yl)-5-[(S)-(4-fluorophenyl)(hydroxy)methyl]cyclopentane-1,2-diol]
pIC50 ([1]; Homo sapiens, A549, 168 h): 5.78 | pIC50 [2]: 7.25

Nc1ncnc2c1c(F)cn2[C@@H]1C[C@H](Oc2cc(F)c(F)c3c2CNCC3)[C@@H](O)[C@H]1O [Example 103, (1S,2S,3R,5S)-3-(4-amino-5-fluoro-7H-pyrrolo[2,3-d]pyrimidin-7-yl)-5-((5,6-difluoro-1,2,3,4-tetrahydroisoquinolin-8-yl)oxy)cyclopentane-1,2-diol]
pIC50 ([1]; Homo sapiens, A549, 168 h): 6.70 | pIC50 [2]: 9.00

Cc1cc2c(c(O[C@H]3C[C@@H](n4ccc5c(C)ncnc54)[C@H](O)[C@@H]3O)c1)CNCCO2 [Example 206, (1S,2S,3S,5R)-3-((8-methyl-2,3,4,5-tetrahydrobenzo[f][1,4]oxazepin-6-yl)oxy)-5-(4-methyl-7H-pyrrolo[2,3-d]pyrimidin-7-yl)cyclopentane-1,2-diol]
pIC50 ([1]; Homo sapiens, A549, 168 h): 5.18

Cc1ncnc2c1ccn2[C@@H]1C[C@H](Oc2cc(OC(F)F)c(F)c3c2CNCC3)[C@@H](O)[C@H]1O [Example 200, (1S,2S,3S,5R)-3-((6-(difluoromethoxy)-5-fluoro-1,2,3,4-tetrahydroisoquinolin-8-yl)oxy)-5-(4-methyl-7H-pyrrolo[2,3-d]pyrimidin-7-yl)cyclopentane-1,2-diol]
pIC50 ([1]; Homo sapiens, A549, 168 h): 6.85

Cc1ncnc2c1ccn2[C@@H]1C[C@H](Oc2cc(C(F)F)cc3c2CNCCO3)[C@@H](O)[C@H]1O [Example 205, (1S,2S,3S,5R)-3-((8-(difluoromethyl)-2,3,4,5-tetrahydrobenzo[f][1,4]oxazepin-6-yl)oxy)-5-(4-methyl-7H-pyrrolo[2,3-d]pyrimidin-7-yl)cyclopentane-1,2-diol]
pIC50 ([1]; Homo sapiens, A549, 168 h): 6.61

Nc1ncnc2c1c(Br)cn2[C@@H]1C[C@H](Oc2cc(Cl)cc3c2CNCC3)[C@@H](O)[C@H]1O [Example 131]
pIC50 ([1]; Homo sapiens, A549, 168 h): 6.32

Cc1ncnc2c1ccn2[C@@H]1C[C@H](Oc2cccc3c2C(=O)NCCO3)[C@@H](O)[C@H]1O [Example 163, 6-(((1S,2S,3S,4R)-2,3-dihydroxy-4-(4-methyl-7H-pyrrolo[2,3-d]pyrimidin-7-yl)cyclopentyl)oxy)-3,4-dihydrobenzo[f][1,4]oxazepin-5(2H)-one]
pIC50 [2]: < 3.70

Cc1ncnc2c1ccn2[C@@H]1C[C@H](Oc2cccc3c2[C@H](N)CC3)[C@@H](O)[C@H]1O [Example 142, (1S,2S,3S,5R)-3-(((R)-3-amino-2,3-dihydro-1H-inden-4-yl)oxy)-5-(4-methyl-7H-pyrrolo[2,3-d]pyrimidin-7-yl)cyclopentane-1,2-diol]
pIC50 [2]: 7.96

Cc1ncnc2c1ccn2[C@@H]1C[C@H]([C@@H](CN)c2ccc(F)cc2)[C@@H](O)[C@H]1O [Example 52, (1S,2R,3R,5R)-3-[(1R)-2-amino-1-(4-fluorophenyl)ethyl]-5-(4-methyl-7H-pyrrolo[2,3-d]pyrimidin-7-yl)cyclopentane-1,2-diol]
pIC50 [2]: 6.04

Cc1ncnc2c1ccn2[C@@H]1C[C@H](Oc2cc(-c3cc[nH]n3)cc3c2CNCC3)[C@@H](O)[C@H]1O [Example 171, (1S,2S,3S,5R)-3-((6-(1H-pyrazol-3-yl)-1,2,3,4-tetrahydroisoquinolin-8-yl)oxy)-5-(4-methyl-7H-pyrrolo[2,3-d]pyrimidin-7-yl)cyclopentane-1,2-diol]
pIC50 [2]: 7.85

Nc1ncnc2c1ccn2[C@@H]1C[C@H]([C@H](O)c2ccc(Cl)c(F)c2)[C@@H](O)[C@H]1O [Example 23, (1R,2S,3R,5R)-3-(4-amino-7H-pyrrolo[2,3-d]pyrimidin-7-yl)-5-((S)-(4-chloro-3-fluorophenyl)(hydroxy)methyl)cyclopentane-1,2-diol]
pIC50 [2]: 6.24

Cc1ncnc2c1ccn2[C@@H]1C[C@H]([C@@H](O)c2ccc(F)cc2)[C@@H](O)[C@H]1O [Example 10, (1S,2R,3R,5R)-3-[(R)-(4-fluorophenyl) (hydroxy)methyl]-5-(4-methyl-7H-pyrrolo[2,3-d]pyrimidin-7-yl)cyclopentane-1,2-diol]
pIC50 [2]: 6.03

Cc1ncnc2c1ccn2[C@@H]1C[C@H]([C@H](C)O)[C@@H](O)[C@H]1O [Example 2, (1S,2R,3R,5R)-3-((S)-1-hydroxyethyl)-5-(4-methyl-7H-pyrrolo[2,3-d]pyrimidin-7-yl)cyclopentane-1,2-diol]
pIC50 [2]: 5.08

Cc1ncnc2c1ccn2[C@@H]1C[C@H](Oc2cccc3c2[C@@H](N)CC3)[C@@H](O)[C@H]1O [Example 141, (1S,2S,3S,5R)-3-(((S)-3-amino-2,3-dihydro-1H-inden-4-yl)oxy)-5-(4-methyl-7H-pyrrolo[2,3-d]pyrimidin-7-yl)cyclopentane-1,2-diol]
pIC50 [2]: 5.41

Cc1cc(F)ccc1O[C@H]1C[C@@H](n2ccc3c(C)ncnc32)[C@H](O)[C@@H]1O [Example 75, (1S,2S,3S,5R)-3-(4-fluoro-2-methylphenoxy)-5-(4-methyl-7H-pyrrolo[2,3-d]pyrimidin-7-yl)cyclopentane-1,2-diol]
pIC50 [2]: 4.42

CN(c1cc(N)ncn1)[C@@H]1C[C@H]([C@H](O)c2ccc(F)c(F)c2)[C@@H](O)[C@H]1O [Example 43, (1R,2S,3R,5R)-3-[(6-aminopyrimidin-4-yl)(methyl)amino]-5-[(S)-(3,4-difluorophenyl) (hydroxy)methyl]cyclopentane-1,2-diol]
pIC50 [2]: 6.06

Cc1cccc(CC(O)[C@H]2C[C@@H](n3ccc4c(C)ncnc43)[C@H](O)[C@@H]2O)n1 (stereo partly drawn) [Example 15, (1S,2R,3R,5R)-3-[1-hydroxy-2-(6-methylpyridin-2-yl)ethyl]-5-(4-methyl-7H-pyrrolo[2,3-d]pyrimidin-7-yl)cyclopentane-1,2-diol]
pIC50 [2]: < 3.70
